Structures can show the parent of a compound that is named as a salt. Where two headings read alike, the source gives them in different places. One block for each compound: values may come before it.
Columns and labels:
[1] = Protocol: Example 10: Stability of the forms (solvent mediated transformation studies)
To assess the stability of the anhydrous Forms A and B, solvent mediated transformation experiments were performed. […] This was tested by viewing a few crystals of Form A/Form B under the microscope by placing them on a glass plate with a cover-slip, adding a drop of water and spreading around the cover. […] Table 3: Results of the solvent mediated transformation studies

platelet aggregation = details: 75 mg of base equivalent versus 325 mg of acetyl salicylic acid; cited from earlier work
[2] = in vivo; cited from earlier work
[3] = room temperature, closed glass container, after 8 to 10 month; PXRD, DSC, Raman
Source text: Polymorph Form B of clopidogrel hydrobromide obtained in example 2a) was stored at room temperature in a closed glass container.

[4] = 100 mg in 5 ml, water bath at 80-100°C
Protocol: Method example 1: 100 mg of clopidogrel hydrobromide HY-1 obtained according to example Ba) was dissolved in 5 ml of the solvent on a water bath at 80-100°C with constant shaking and the solvent was allowed to evaporate slowly at room temperature for 24 hours at ambient pressure.

[5] = benzene/ acetonitrile 1:1, method example b (dissolved at 70°C, evaporation 24 hours at room temperature)
Protocol: Method example b: 100 mg of clopidogrel hydrobromide HY-1 were dissolved in 3-5 ml of the first solvent at a temperature of 70°C. 8-10 ml of the second solvent were added to the solution over 3-5 minutes to reduce the polarity until it becomes a saturated solution. The solvent mixture was allowed to evaporate for 24 hours at room temperature at ambient pressure for 24 hours. The precipitate was filtered off.

Structure (SMILES): COC(=O)[C@H](c1ccccc1Cl)N1CCc2sccc2C1 [A:B (1:1), clopidogrel hydrobromide]
Resulting form ([1]; solvent toluene, 1 day/10-30°C): HY-2
Resulting form ([1]; solvent water, 1 day/20°C): HY-1
polymorph produced on stirring ([1]; toluene (200 mg in 3-5 ml), 10-30°C, 1-4 days, formed after 1 day, confirmed after 4 days and 2-4 weeks by PXRD, DSC, TGA, Raman): HY-2

Structure (SMILES): COC(=O)[C@H](c1ccccc1Cl)N1CCc2sccc2C1 [Clopidogrel, (αS)-α-(2-chlorophenyl)-6,7-dihydrothieno[3,2-c]-pyridine-5(4H)-acetic acid methyl ester]
effectiveness in blocking platelet aggregation versus acetyl salicylic acid (platelet aggregation): more effective
gastrointestinal bleeding versus acetyl salicylic acid [2]: much less

Structure (SMILES): COC(=O)[C@H](c1ccccc1Cl)N1CCc2sccc2C1 [Form A, clopidogrel hydrobromide]
time span within which needle like crystals corresponding to HY-1 were formed ([1]; a few crystals on a glass plate under the microscope, a drop of water added): ≤ 30 min
time span within which the form is converted to the hydrate, i.e. HY-1 ([1]; apolar solvents containing minimal amounts of water): ≤ 1 h
Resulting form ([1]; solvent water, 30 min/25°C): HY-1

Other lines, results leading:

polymorphic form identified after storage [3]: Form E
Structure (SMILES): COC(=O)[C@H](c1ccccc1Cl)N1CCc2sccc2C1 [Form B, clopidogrel hydrobromide]

solubility ([4]; solvent acetic acid): highly soluble
solubility ([4]; solvent acetone): soluble
solubility ([4]; solvent acetonitrile): soluble
solubility ([4]; solvent benzene): sparingly soluble
solubility ([4]; solvent chloroform): highly soluble
solubility ([4]; solvent cyclohexane): insoluble
solubility ([4]; solvent dichloromethane): highly soluble
solubility ([4]; solvent diethylether): insoluble
solubility ([4]; solvent dimethylformamide): soluble
solubility ([4]; solvent dioxane): soluble in hot
solubility ([4]; solvent ethanol): highly soluble
solubility ([4]; solvent ethylacetate): soluble in hot
solubility ([4]; solvent i-propanol): highly soluble
solubility ([4]; solvent methanol): highly soluble
solubility ([4]; solvent n-butanol): highly soluble
solubility ([4]; solvent n-decane): insoluble
solubility ([4]; solvent n-hexane): insoluble
solubility ([4]; solvent n-pentanol): soluble
solubility ([4]; solvent n-propanol): highly soluble
solubility ([4]; solvent nitromethane): soluble
solubility ([4]; solvent petrolether): insoluble
solubility ([4]; solvent tetrachloromethane): insoluble
solubility ([4]; solvent tetrahydrofurane): soluble in hot
solubility ([4]; solvent toluene): soluble in hot
solubility ([4]; solvent water): sparingly soluble in hot
solubility ([4]; solvent xylene): soluble in hot
Remarks (behaviour in the solvent mixture) [5]: Decomposition
Structure (SMILES): COC(=O)[C@H](c1ccccc1Cl)N1CCc2sccc2C1 [Form HY-1, clopidogrel hydrobromide]

From patent EP1674468A1, “Polymorphs of clopidogrel hydrobromide” (Ratiopharm GmbH, priority 2004, dated 2006)
